The values that follow come from patent US20230321064A1, “Products for Treating the JNCL Disease” (Beyond Batten Disease Foundation, priority 2020, published 2023).

As usually defined, the Cmax is the peak of the concentration-time curve. What is called Tmax is the time at which the peak concentration occurs.

In data set [1] the test system is Cln3^Δex7-8 mice. Kind of data set: Astrocytosis, GFAP immunohistochemistry in brain sections. In kind it is in vivo, mouse. As to the method:
(§1) Cln3^Δex7-8 mice were obtained from the Jackson Laboratory. Control (C57BL/6J) and Cln3^Δex7-8 mice were housed 3-4 per cage in a room with a 12-h light/12-h dark cycle. Food and water were provided ad libitum. All mice used in this study were analyzed at 8 and 12 months of age and were littermates produced by crossing heterozygous Cln3^Δex7-8 mice. Only males were used for this analysis. Investigators were blinded when analyzing the data, and no randomization was necessary.
(§2) For oral administration, Trehalose was dissolved in drinking water to a final concentration of 2% and changed twice a week. Trehalose-containing water was given to Cln3^Δex7-8 mice and WT mice by spontaneous oral administration starting at 21 days of age and continuing until the day the mice were sacrificed for neuropathology studies.
(§3) Miglustat was administered in mixture with the food pellet starting at 21 days of age and continuing until the day the mice were sacrificed for neuropathology studies. Miglustat food was prepared by TestDiet using the 5V5R rodent diet (LabDiet). Two concentrations were used: 1.2 g/Kg chow (indicated as “low concentration”) and 7.2 g/Kg chow (indicated as “high concentration”) and two separate groups of Cln3^Δex7-8 mice were fed with either diet. One additional group of Cln3^Δex7-8 l mice was fed with a combination of the low-concentration Miglustat food and 2% Trehalose water.
(§4) Twelve-month-old homozygous Cln3^Δex7-8 mice and age-matched controls (WT mice) were anaesthetized with isoflurane and transcardially perfused with PBS followed by 4% buffered paraformaldehyde in 0.1 M sodium phosphate buffer, pH 7.4. Brains were subsequently removed and postfixed overnight. Before sectioning, the brains were cryoprotected in a solution containing 30% sucrose in Tris-buffered saline (TBS: 50 mM Tris, pH 7.6). Consecutive 40 μm floating coronal sections were collected in 96-well plates. Series of sections were then stained with primary antisera against CD68 (AbD
(§5) Serotec, Cat. No. MCA1957), GFAP (DAKO, Cat. No. Z0334), Subunit C of mitochondrial ATP synthase (SCMAS; Abcam, Cat. No. ab181243), or cleaved caspase 3 (Asp175) (Cell Signaling, Cat. No. 9661S) followed by either rabbit anti-rat (VectorLab) or swine anti-rabbit (DAKO) secondary antibodies, and immunoreactivity detected with Vectastain ABC (avidin-biotin) kit (Vector) and diaminobenzidine as a chromogen.
(§6) Non-overlapping images were captured, on three consecutive sections, through each region of interest. All RGB images were captured via a live video camera (JVC, 3CCD, KY-F55B), mounted onto a Zeiss Axioplan microscope using a x 40 objective and saved as JPEGs. All parameters including lamp intensity, video camera set-up and calibration were maintained constant throughout image capturing. For quantification of storage and inflammation, images were analyzed using ImageJ analysis software (NIH), using an appropriate threshold that selected the foreground immunoreactivity above background. This threshold was then applied as a constant to all subsequent images analyzed per batch of animals and reagent used to determine the specific area of immunoreactivity for each antigen in each region. Data were plotted graphically as the mean percentage area of immunoreactivity per field ±s.e.m. for each region. For quantification of cell death, images were analyzed manually and scored for the presence of apoptotic nuclei. Data were plotted graphically as the mean number of apoptotic cells per field ±s.e.m. for each region. All analyses were performed blind to genotype and treatment.
[…] was also quantified by performing immunohistochemistry staining of brain sections of all test and control mice using anti-GFAP antibodies.

Data set [2] is described as follows: Blood PK of Trehalose after IV and PO administration, with and without PO Miglustat (LC-MS/MS). Format: in vivo, mouse. Particulars: for Cmax / Tmax / AUC(0-inf): male, C57BL6/N, mouse, whole blood; for AUC(0-inf): read-out: AUC0-inf of Trehalose in blood (converted). As to the method:
LC-MS/MS bioanalytical methodologies were developed for the analysis of Trehalose, Miglustat and glucose in mouse whole blood and brain.
Blood samples were prepared as follows; 20 μL of whole blood was transferred to a 96 wellplate and diluted 1:1 with sterile distilled water. Samples were protein precipitated by addition of 160 μL of 2.5% of trichloroacetic acid (TCA). At the time of analysis, 1 volume of acetonitrile containing an internal standard was added in order to match the initial chromatography conditions, samples were centrifuged at 4350 rpm for 10 min at ambient temperature, and the resultant supernatant transferred for analysis on the LC-MS/MS.
The purpose of this example was to compare the blood PK of unlabelled high doses of Trehalose after IV and PO administration, with and without Miglustat PO dosing. For the IV comparison, Trehalose was dosed as an IV bolus dose 15 min after PO dosing of Miglustat. For the PO comparison Miglustat was dosed simultaneously with Trehalose. Fasted male C57BL6/N mice were dosed as detailed in Table III:
Blood samples were collected at pre-dose, 10, 20, 30, 60, 120 and 180 min post-dose for group 1 and 2 and at pre-dose, 15, 30, 45, 60, 120 and 180 min post-dose for group 3 and 4.

For data set [3] the following is noted: at 20° C.; cited from earlier work.
For data set [4], the system named is Cln3^Δex7-8 mice. Nature of the data set: Neuronal cell death, cleaved caspase-3 immunohistology in brain sections. In kind it is in vivo, mouse. As to the method:
as §1, §2, §3, §4, §5
as §6, with “All analyses were performed blind to genotype and treatment.” left out

In data set [5] the test system is Cln3^Δex7-8 mice. Kind of data set: Microglial activation, CD68 immunohistochemistry in brain sections. Format: in vivo, mouse. The settings on record: analyzed regions VPM/VPL, DLG, S1BF, V1 (FIG. 2A-D). The procedure: as §1, §2, §3, §4, §5
as §6, with “Data were plotted graphically as the mean percentage area of immunoreactivity per field ±s.e.m. for each region.” left out, “Data were plotted graphically as the mean number of apoptotic cells per field ±s.e.m. for each region. All analyses were performed blind to genotype and treatment.” left out
(S1BF), the primary visual (V1) cortex, and the dorsolateral geniculate (DLG) (Pontikis et al., 2005). To quantify microglial activation, antibodies against the microglial marker CD68 were used. […]

Setting [6] is: 1 g/kg trehalose IV + 150 mg/kg miglustat PO.
[7] abbreviates: 10 g/kg trehalose PO + 150 mg/kg miglustat PO.

Each structure is given as a SMILES string. “Also recorded” adds a separate entry of the source. Read-outs that look alike come from different tables or passages of the source.

On to `OC[C@H]1O[C@H](O[C@H]2O[C@H](CO)[C@@H](O)[C@H](O)[C@H]2O)[C@H](O)[C@@H](O)[C@@H]1O` [Trehalose, α-D-glucopyranosyl α-D-glucopyranoside dihydrate], for which the “astroglial activation (GFAP staining) in the VPM/VPL region” value in the data set on Cln3^Δex7-8 mice [1] (12 months of age, oral, Miglustat even at low doses (FIG. 3E)) was “partially prevented”. In the data set on Cln3^Δex7-8 mice [1] (FIG. 3A), the “astrocytosis (GFAP immunoreactivity) in the VPM/VPL” value was “did not have any observable effects”. Besides, the “astrocytosis (GFAP immunoreactivity) in the DLG” value in the data set with Cln3^Δex7-8 mice [1] (FIG. 3B) was “prevented astrocytosis”. Moreover, the “Trehalose fold-change with miglustat dosing” value in data set [2] (1 g/kg trehalose IV + 150 mg/kg miglustat PO vs 1 g/kg IV alone) came out at 1.5. For the same compound, the “increase of measured AUC of Trehalose by combined PO Miglustat” value in data set [2] (Trehalose via either IV or PO administration) is listed as over 1.5 fold. In addition, the “detection of Trehalose after oral administration” value in data set [2] (low doses such as 1 g/kg, oral) is given as “cannot be detected”. Moreover, the Cmax in data set [2] (1 g/kg trehalose IV) amounted to 3690 ± 153 µM; in data set [2] (setting [6]), 5490 ± 873 µM; in data set [2] (setting [7]), 189 ± 43.9 µM. The Tmax in data set [2] (1 g/kg trehalose IV) is 20 min; in data set [2] (setting [6]), 20 min; in data set [2] (setting [7]) it was 15 min. In addition, the values for the AUC(0-inf) in data set [2] (setting [6]), in data set [2] (1 g/kg trehalose IV) and in data set [2] (setting [7]) were 2990 µM·h, 1960 µM·h and 307 µM·h, respectively. The Solubility entry in data set [3] is “Trehalose: 68.9 g/100 g H2O at 20 °C”. Further, the “cell death (cleaved CAS-3) in the VPM/VPL region” value with Cln3^Δex7-8 mice [4] (12 months of age, oral, 2% Trehalose in drinking water, Miglustat in chow (FIG. 1E), dihydrate) was “partially prevented; also recorded: partially reduced”. In addition, the “programmed cell death (cleaved caspase-3 reactive cells)” value with Cln3^Δex7-8 mice [4] (regions analyzed: VPM/VPL, dLG, S1BF, V1 (FIGS. 1A-D), oral treatment) is reported as “effective in abating programmed cell death”. For the same compound, the “microglial activation (CD68)” value in the data set on Cln3^Δex7-8 mice [5] is given as “partially mitigated”.
